Reference: patent publication US4269717A, “Boiler additives for oxygen scavenging” (priority 1980, dated 1981)
Like-named read-outs stand apart in the source and are kept apart here.

Legend:
[1] = Method: A second more extensive group of potential oxygen scavengers were compared, again using a small laboratory boiler and oxygen saturated feed water containing sodium hydroxide. […] The hydrazine salts among this group are no less toxic than hydrazine and therefore were eliminated from further study. […] In addition, the carbohydrazide was preferred because it is a solid at room temperature and could therefore be used in dry formulations.
INITIAL SCREENING AT 227-239° F.

Solubility in water = type: physicochemical
[2] = Carbohydrazide vs. hydrazine in oxygen removal, once-through apparatus (Table III); settings: for % O2 Removal / Final O2: initial O2 7.7 ppm, 227-239° F., pH about 10.5
Method: A once-through experimental apparatus for simulating boiler water transport was utilized in this example. Water temperature in this example was maintained at about 227°-239° F. and pH at about 10.5.

[3] = Oxygen scavenging in heated copper coil apparatus (FIG. 1); settings: 135° F.; pH 9.0; initial O2 7.7 ppm; corresponding scavenger:oxygen levels
Method: Another series of tests comparing hydrazine and carbohydrazide were carried out with the results presented in graphic form in FIG. 1. These tests were carried out at a temperature of 135° F. and a pH of 9.0 to prevent hydrolysis of the carbohydrazide.
The apparatus used including a reciprocating pump drawing water from a water reservoir and moving it through a heated copper coil at a rate of about 37 ml/minute. The coil was mounted in a cooling column and dissolved oxygen was measured at its outlet. The initial oxygen reading taken at this point for these tests was 7.7 ppm.
After the initial oxygen reading was taken, the scavenger being tested was injected into the feed line before the reciprocating pump.

[4] = Commercial scale boiler comparison of oxygen scavenging
Method: Commercial scale comparisons were made between carbohydrazide and hydrazine. The tests were run on a system including a deaerator which treats a mixture of feed water and condensate at 60 p.s.i. and 300°-310° F. before it is fed to a first stage heater at 160 p.s.i. and 360°-366° F. and a second stage heater at 400 p.s.i. and 446°-450° F. The second stage heater then feeds into three boilers: a combination boiler at 1,275 p.s.i., a first power boiler at 1,275 p.s.i. and a second power boiler at 400 p.s.i. The treatment chemicals were fed alternatively at the deaerator and just down line from it.

[5] = Metal passivation in experimental firerod boiler (Table IV)
Text: Metal passivation studies were undertaken using an experimental firerod boiler under the following test conditions:
10 boiler water concentrations
40 ppm M alkalinity (as CaCO3)
A blank containing no oxygen scavenger was followed by test runs with hydrazine, carbohydrazide, and sodium sulfite.
*Tubes ranked by appearance of metal surface.

[6] = Carbohydrazide low temperature hydrolysis (Table V); type: physicochemical; design: Hydrazine By Hydrolysis: unit not given here; settings: for Hydrazine By Hydrolysis / Percent Hydrolysis / ppm Hydrazine: 1,000 ppm
Method: Low temperature hydrolysis studies of carbohydrazide were carried out using reagent grade carbohydrazide containing approximately 2.7±0.1% hydrazine as an impurity. A 1,000 ppm carbohydrazide solution and a 100 ppm hydrazine solution were prepared with deaerated, deionized water. Half of the carbohydrazide solution was adjusted to pH 10.2 with sodium hydroxide and the other half was left at its original pH of 6.9. The solutions were poured into Nessler tubes to overflowing and sealed with stoppers fitted with hypodermic needles to allow pressure release with minimum air contact. Four samples of both of the carbohydrazide solutions and two samples of the hydrazine control were stored at varying temperatures for varying periods of time, all as reported in Table V below.

[7] = Corrosion control under static storage conditions; settings: 160 moles or more of carbohydrazide per mole of oxygen
Text: The amount of carbohydrazide required to effectively scavenge oxygen from the boiler water is dependent upon the amount of oxygen actually present therein. It is generally desirable that at least 0.5 moles of carbohydrazide be used per mole of oxygen. These minimum levels of carbohydrazide will have the added benefit of effectively passivating metal surfaces. Of course, levels of carbohydrazide considerably in excess of 0.5 moles per mole of oxygen may be required, particularly for treating boiler water under static storage conditions.

[8] = pH 6.9, Room Temp. (77° F.), 2 days
[9] = pH 6.9, Room Temp. (77° F.), 4 days
[10] = pH 6.9, Room Temp. (77° F.), 6 days
[11] = pH 10.2, Room Temp. (77° F.), 2 days
[12] = pH 10.2, Room Temp. (77° F.), 4 days
[13] = pH 10.2, Room Temp. (77° F.), 6 days

In the case of `NNC(=O)NN` [Carbohydrazide, N, N' diaminourea], the “Scavenger ranking of the remaining two compounds” value [1] is reported as “the best scavenger”, the “Oxygen scavenging activity relative to hydrazine” value ([1]; 227-239° F., Table II) is reported as “activity comparable to hydrazine” and the “% O2 Removal” value ([1]; initial O2 40 ppb, 227-239° F.) is reported as 87.5%. The “Final O2” value ([1]; initial O2 40 ppb, 227-239° F.) was 5 ppb, the “Solubility in water” value (Solubility in water) was “freely soluble in water” and the “% O2 Removal” value ([2]; ppm scavenger/ppm O2 0.05/1) was 14.3%. The “Final O2” value ([2]; ppm scavenger/ppm O2 0.05/1) was 6.60 ppm, the “% O2 Removal” value ([2]; ppm scavenger/ppm O2 0.5/1) was 57.4% and the “Final O2” value ([2]; ppm scavenger/ppm O2 0.5/1) was 3.28 ppm. The “% O2 Removal” value ([2]; ppm scavenger/ppm O2 5.0/1) was 98.7%, the “Final O2” value ([2]; ppm scavenger/ppm O2 5.0/1) was 0.10 ppm and the “Amount needed for oxygen removal achieved with a given concentration of hydrazine” value ([2]; vs hydrazine, Table III) was “half as much”. The “Oxygen scavenging relative to hydrazine” value [3] was “superior to the hydrazine”, the “Oxygen scavenging relative to hydrazine, various points” value ([4]; carbohydrazide levels half those of hydrazine) was “comparable or superior to the hydrazine” and the “Oxygen scavenging relative to hydrazine at 360° F.” value ([4]; just past first stage heater, carbohydrazide at 50% of hydrazine level) was “scavenged the oxygen more efficiently than the hydrazine”. For the same compound, the “Oxygen scavenging relative to hydrazine at 446° F.” value ([4]; just past second stage heater, carbohydrazide at 50% of hydrazine level) was “scavenged the oxygen more efficiently than the hydrazine”, the “Oxygen scavenging relative to hydrazine at 300° F.” value ([4]; just past the deaerator, carbohydrazide at 50% of hydrazine level) was “comparable with the hydrazine” and the “Tube Rank (by appearance of metal surface)” value ([5]; dosage 1 ppm, 600 p.s.i., 48 hour test) was 1. For the same compound, the Metal passivation effectiveness ([5]; under the test conditions, Table IV) was “the most effective metal passivator”, the “Hydrolysis at 120° F.” value ([6]; 120° F.) was “no hydrolysis occured” and the “Hydrolysis above the original free hydrazine level” value ([6]; 180° F.) was 3%. For the same compound, the “Hydrazine By Hydrolysis” value ([6]; pH 6.9, 120° F., 2 days) was 0, the “Percent Hydrolysis” value ([6]; pH 6.9, 120° F., 2 days) was 2.7% and the “ppm Hydrazine” value ([6]; pH 6.9, 120° F., 2 days) was 18.9 ppm. The “Hydrazine By Hydrolysis” value ([6]; pH 6.9, 120° F., 4 days) was 0, the “Percent Hydrolysis” value ([6]; pH 6.9, 120° F., 4 days) was 2.6% and the “ppm Hydrazine” value ([6]; pH 6.9, 120° F., 4 days) was 18.8 ppm. For the same compound, the “Hydrazine By Hydrolysis” value ([6]; pH 6.9, 120° F., 6 days) was 0, the “Percent Hydrolysis” value ([6]; pH 6.9, 120° F., 6 days) was 2.6% and the “ppm Hydrazine” value ([6]; pH 6.9, 120° F., 6 days) was 18.3 ppm. For the same compound, the “Hydrazine By Hydrolysis” value ([6]; pH 6.9, 180° F., 2 days) was 1.3, the “Percent Hydrolysis” value ([6]; pH 6.9, 180° F., 2 days) was 4.0% and the “ppm Hydrazine” value ([6]; pH 6.9, 180° F., 2 days) was 28.4 ppm. For the same compound, the “Hydrazine By Hydrolysis” value ([6]; pH 6.9, 180° F., 4 days) was 2.3, the “Percent Hydrolysis” value ([6]; pH 6.9, 180° F., 4 days) was 5.0% and the “ppm Hydrazine” value ([6]; pH 6.9, 180° F., 4 days) was 35.4 ppm. For the same compound, the “Hydrazine By Hydrolysis” value ([6]; pH 6.9, 180° F., 6 days) was 3.0, the “Percent Hydrolysis” value ([6]; pH 6.9, 180° F., 6 days) was 5.7% and the “ppm Hydrazine” value ([6]; pH 6.9, 180° F., 6 days) was 40.2 ppm. The “Hydrazine By Hydrolysis” value [6, 8] was 0, the “Percent Hydrolysis” value [6, 8] was 2.8% and the “ppm Hydrazine” value [6, 8] was 19.7 ppm. For the same compound, the “Hydrazine By Hydrolysis” value [6, 9] was 0, the “Percent Hydrolysis” value [6, 9] was 2.7% and the “ppm Hydrazine” value [6, 9] was 19.1 ppm. For the same compound, the “Hydrazine By Hydrolysis” value [6, 10] was 0, the “Percent Hydrolysis” value [6, 10] was 2.6% and the “ppm Hydrazine” value [6, 10] was 18,7 ppm. For the same compound, the “Hydrazine By Hydrolysis” value ([6]; pH 6.9, time 0) was 0, the “Percent Hydrolysis” value ([6]; pH 6.9, time 0) was 2.7% and the “ppm Hydrazine” value ([6]; pH 6.9, time 0) was 19.0 ppm. The “Hydrazine By Hydrolysis” value ([6]; pH 10.2, 120° F., 2 days) was 0, the “Percent Hydrolysis” value ([6]; pH 10.2, 120° F., 2 days) was 2.8% and the “ppm Hydrazine” value ([6]; pH 10.2, 120° F., 2 days) was 20.0 ppm. The “Hydrazine By Hydrolysis” value ([6]; pH 10.2, 120° F., 4 days) was 0, the “Percent Hydrolysis” value ([6]; pH 10.2, 120° F., 4 days) was 2.8% and the “ppm Hydrazine” value ([6]; pH 10.2, 120° F., 4 days) was 19.8 ppm. For the same compound, the “Hydrazine By Hydrolysis” value ([6]; pH 10.2, 120° F., 6 days) was 0, the “Percent Hydrolysis” value ([6]; pH 10.2, 120° F., 6 days) was 2.7% and the “ppm Hydrazine” value ([6]; pH 10.2, 120° F., 6 days) was 19.3 ppm. For the same compound, the “Hydrazine By Hydrolysis” value ([6]; pH 10.2, 180° F., 2 days) was 1.4, the “Percent Hydrolysis” value ([6]; pH 10.2, 180° F., 2 days) was 4.1% and the “ppm Hydrazine” value ([6]; pH 10.2, 180° F., 2 days) was 29.0 ppm. For the same compound, the “Hydrazine By Hydrolysis” value ([6]; pH 10.2, 180° F., 4 days) was 2.1, the “Percent Hydrolysis” value ([6]; pH 10.2, 180° F., 4 days) was 4.8% and the “ppm Hydrazine” value ([6]; pH 10.2, 180° F., 4 days) was 34.2 ppm. The “Hydrazine By Hydrolysis” value ([6]; pH 10.2, 180° F., 6 days) was 2.7, the “Percent Hydrolysis” value ([6]; pH 10.2, 180° F., 6 days) was 5.4% and the “ppm Hydrazine” value ([6]; pH 10.2, 180° F., 6 days) was 38.6 ppm. For the same compound, the “Hydrazine By Hydrolysis” value [6, 11] was 0, the “Percent Hydrolysis” value [6, 11] was 2.8% and the “ppm Hydrazine” value [6, 11] was 20.2 ppm. For the same compound, the “Hydrazine By Hydrolysis” value [6, 12] was 0.1, the “Percent Hydrolysis” value [6, 12] was 2.9% and the “ppm Hydrazine” value [6, 12] was 20.5 ppm. For the same compound, the “Hydrazine By Hydrolysis” value [6, 13] was 0, the “Percent Hydrolysis” value [6, 13] was 2.8% and the “ppm Hydrazine” value [6, 13] was 20.1 ppm. The “Hydrazine By Hydrolysis” value ([6]; pH 10.2, time 0) was 0, the “Percent Hydrolysis” value ([6]; pH 10.2, time 0) was 2.7% and the “ppm Hydrazine” value ([6]; pH 10.2, time 0) was 19.1 ppm. The “pH dependence of hydrolysis values” ([6]; pH range of 7-10) was “did not vary significantly”, the “Hydrolysis at room temperature” value ([6]; room temperature) was “no hydrolysis occured” and the “Corrosion control under static conditions” value [7] was “effective in controlling corrosion”.
